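Protocol summary: plate cells (96-well), add compound at 5 concentrations, incubate 48 h, interpolate endpoints linearly. TGI marks complete inhibition of growth.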
How the values were obtained:
Assay in all cases: NCI anticancer screen, dose series, 48 h
786-0 renal = test system: 786-0 renal
A549 NSCLC = test system: A549 NSCLC
CAKI-1 renal = test system: CAKI-1 renal
LOX IMVI melanoma = test system: LOX IMVI melanoma
M14 melanoma = test system: M14 melanoma
MALME-3M melanoma = test system: MALME-3M melanoma
NCI-H226 lung = test system: NCI-H226 lung
NCI-H522 lung = test system: NCI-H522 lung
PC-3 prostate = test system: PC-3 prostate
RPMI-8226 leukemia = test system: RPMI-8226 leukemia
SF-295 CNS = test system: SF-295 CNS
SK-MEL-28 melanoma = test system: SK-MEL-28 melanoma
SK-OV-3 ovarian = test system: SK-OV-3 ovarian
SN12C renal = test system: SN12C renal
SNB-19 CNS = test system: SNB-19 CNS
SNB-75 CNS = test system: SNB-75 CNS
TK-10 renal = test system: TK-10 renal
UACC-257 melanoma = test system: UACC-257 melanoma
UO-31 renal = test system: UO-31 renal
HCC-2998 colon = test system: HCC-2998 colon

SMILES	TGI (786-0 renal) [µM]	TGI (A549 NSCLC) [µM]	TGI (CAKI-1 renal) [µM]	TGI (LOX IMVI melanoma) [µM]	TGI (M14 melanoma) [µM]	TGI (MALME-3M melanoma) [µM]	TGI (NCI-H226 lung) [µM]	TGI (NCI-H522 lung) [µM]	TGI (PC-3 prostate) [µM]	TGI (RPMI-8226 leukemia) [µM]	TGI (SF-295 CNS) [µM]	TGI (SK-MEL-28 melanoma) [µM]	TGI (SK-OV-3 ovarian) [µM]	TGI (SN12C renal) [µM]	TGI (SNB-19 CNS) [µM]	TGI (SNB-75 CNS) [µM]	TGI (TK-10 renal) [µM]	TGI (UACC-257 melanoma) [µM]	TGI (UO-31 renal) [µM]	TGI (HCC-2998 colon) [µM]
O=C1Nc2ccccc2S/C1=C\c1ccccc1C(F)(F)F	> 100	> 100	> 100	> 100	> 100	> 100	> 100	> 100	> 100	> 100	> 100	> 100	> 100	> 100	> 100	92.3	> 100	> 100	> 100	
C=CCCCC1SC2=C(CC)CCCN2C1=O (stereo not given)	> 100	> 100	> 100	> 100	> 100	> 100	> 100	> 100	> 100	> 100	> 100	> 100	> 100	> 100	> 100		> 100	63.1	> 100	
CCCc1c[nH]c(-c2ccc(-c3cc(CCC)c(C=O)[nH]3)s2)c1	27.7	17.6		27.7	24.5	30	33.3	31.1			33.1	26.5	32.8	30.2	37	34.8	28.7	31.2		
CC(=O)C1=C(C)Cn2c(=O)c3ccccc3c(=O)n2C1	> 100	> 100	> 100	> 100	> 100	> 100	> 100	> 100		> 100	> 100	> 100	> 100	> 100	> 100	> 100	> 100	> 100	> 100	> 100
COC(=O)Nc1nc2ccc(S(=O)(=O)n3nnc4ccccc43)cc2[nH]1	> 100	> 100	> 100	> 100	> 100	> 100		> 100	> 100	> 100	90.7	> 100	41.2	> 100	> 100	21.4		43.9	> 100	
Cc1cccc(/C=C2\CCCc3ccccc3C2=O)c1	> 100	> 100	> 100	37	34.6	35.3	40.8	33.1	> 100	45.8	41.8	59	> 100	38	90.3	> 100	> 100	61.8	> 100	
COc1cc(-c2cc(=O)c3c(O)c(OC)c(OC)c(OC)c3o2)ccc1O	> 100	90.7		68.8	81.7	> 100		44.7		> 100	60.5	> 100	76	79	> 100		78.3	> 100	> 100	> 100
COc1ccc(OC)c(C23CCCC(C2)N(C)CC3)c1 (stereo not given)	85.3	> 100	> 100		34.1				41.2	42.2	66.2			> 100	49		> 100	> 100	> 100	
O=C(O)c1cc2cc(c1)N=Cc1ccccc1OCc1cccc(n1)COc1ccccc1C=N2	> 25	> 25			> 25	22.4	> 25	> 25	> 25	22	22.1	> 25	> 25	> 25	> 25	> 25	> 25	> 25	> 25	
C=CCC(CC=O)(C(=O)OCC)C(=O)OCC	> 100	> 100	> 100	> 100	> 100	> 100	> 100	> 100	> 100	> 100	> 100	> 100	> 100	> 100	> 100	> 100	> 100	> 100	> 100	
O=C1CCCC/C1=C1\C(=O)Nc2cc(F)ccc21	> 100	> 100	> 100	> 100	> 100	> 100	> 100	> 100		> 100	> 100	> 100	> 100	> 100	> 100	> 100	> 100	> 100	> 100	> 100
CC(O)C(N=Cc1nc(-c2ccccc2)oc1O)C(=O)O (stereo not given)	> 100	> 100	> 100	> 100	> 100	> 100	> 100	> 100		> 100	> 100	> 100	> 100		> 100	> 100	> 100	> 100	> 100	> 100
O=C1Nc2ccccc2S/C1=C\c1cccc(C(F)(F)F)c1	> 100	> 100	37.4	> 100	> 100	> 100	> 100	> 100	> 100	> 100	> 100	> 100	> 100	> 100	> 100	> 100	> 100	> 100	> 100	
Cc1ccc2nc(-c3ccc(-n4c(C)nc(=O)c(-c5ccc(F)cc5)c4C)cc3)sc2c1	29.9	35.6	35.1	53.6	26.4	32.5	41.6	35.2	25.1	39.6	33.1	50.7	29.3	33.8	29.5	27.4	30.8	30.1	30.6	
Cc1ccc(C[P+]2(c3ccccc3)CCCCC2)cc1	> 100	> 100		> 100	> 100	> 100	> 100	> 100		46.8	> 100	> 100	> 100	> 100	> 100	76.9	> 100	32.6	> 100	60.8
CSC1=NC(C(N)=O)C(N)N1C (stereo not given)	> 100	> 100	> 100	> 100	> 100	> 100	> 100	> 100	> 100	> 100	> 100	> 100	> 100	> 100	> 100		> 100	> 100	> 100	
Cc1c(-c2nnc(-c3ccc(Cl)cc3)o2)c(=O)n(-c2ccccc2)n1C	> 100	> 100		> 100	> 100	> 100	> 100	> 100		> 100	> 100	> 100	> 100	> 100	> 100	> 100	> 100	> 100	> 100	> 100
CC(=O)OC(C)c1cc2c(s1)C(=O)c1scc(C(C)OC(C)=O)c1C2=O (stereo not given)	0.461	4.06	5.04	> 100	0.238	0.288	4.04	0.571			0.323	0.378	4.33		0.454	0.332	1.83	0.463	0.451	1.23
CCOC(=O)c1cc2c(nc1N)-c1ncccc1CC2	> 100	> 100	> 100	> 100	> 100	> 100	> 100	> 100		68.8	> 100	> 100	> 100	> 100	> 100	> 100	> 100	> 100	> 100	> 100
O=C(O)Cc1cccc2c1Oc1ccccc1S2	> 100	> 100		> 100	> 100	> 100	> 100			> 100	> 100	> 100	> 100	> 100	> 100	> 100	> 100	> 100	> 100	> 100
CCOC(=O)N(c1ccccc1)c1cc(=O)n2ccccc2n1	> 100	> 100	> 100	> 100		> 100	> 100			> 100	> 100	> 100	> 100	> 100	> 100	> 100	> 100	> 100	> 100	> 100
N#C/C(=C\c1ccc(O)c(O)c1)C(=O)NC1CCC(CC2CCC(NC(=O)/C(C#N)=C/c3ccc(O)c(O)c3)CC2)CC1 (stereo not given)	7.37	4.56	> 29.3	1.22	6.83	15	14.3	4.71		> 25.2	3.55	> 100	> 41.4	7.23	> 29.9	1.69	> 54.7	> 24.3	4.97	7.43
CC1(C)OC(C[C@]2(C#N)C[C@H](CCl)OC(C)(C)O2)C[C@@H](C[C@]2(C#N)C[C@H](CCl)OC(C)(C)O2)O1 (stereo not given in full)	> 100	> 100	> 100	> 100	> 100	> 100	> 100	> 100		> 100	> 100	> 100	> 100	> 100	> 100	> 100	> 100	> 100		> 100
COc1ccc2c3c(n(Cc4ccccc4)c(=O)c2c1)-c1cc(OC)c(OC)cc1C3C (stereo not given)	27.7	> 100	> 100	> 100	> 100	57.6	> 75.9	47.8		> 100	31.4	> 100	> 80.4	> 100	> 84.9	45.4	> 100	> 100	> 100	> 100
CCSC1(SCC)CC(Cc2ccc(OC)cc2)N(C=NC(C)(C)C)C1 (stereo not given)	> 100	> 100	> 100	32.4	32.2	37.5	> 100	31.1			45.5	88.4	83.6	84.4	> 100	> 100	63.2	47.5	87.5	40.2
Oc1ccc2oc3c(O)c4ccccc4cc3c2c1	20	> 100	68.7	21.9	21.7	33.4		2.71	> 100	3.96		> 100	53.2	8.32	> 100		45	> 100	15.8	
